Measurements published in the supplement of paper PMC4954754.
± gives the uncertainty stated by the source.

tested on: HEK293T-Rex XBP1-RLuc; experiment: maximal XBP1-RLuc activation from dose-response fit, relative to thapsigargin (% of thapsigargin); higher = stronger activation; settings: 18 h
Protocol: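 Dose-response of hit compounds in HEK293T-Rex cells stably expressing ERSE-FLuc or XBP1-RLuc reporters, 18 hr treatment, 1536-well; luminescence normalised to 500 nM thapsigargin (100%) and DMSO (0%), fitted to give EC50 (M) and maximal activation; '>' marks EC50 above the top tested dose (~17 µM).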

Row | Structure (SMILES) | maximal XBP1-RLuc activation
1 | O=C(NC(c1ccccc1)c1ccccc1)c1csc(-c2cnccn2)n1 | 43.4 ± 9.4
2 | O=[N+]([O-])c1ccc(N/N=C/c2ccccc2O)cc1 | 68.9 ± 7.5
3 | O=C(N/N=C/c1ccc2c(c1)OCO2)c1cccc(F)c1 | 5.7 ± 0.65
4 | COc1ccc2oc(=Nc3cc(F)ccc3F)c(C(N)=O)cc2c1 | 1.95 ± 1.5
5 | CCCc1cc(C(=O)Nc2cc(C)ccc2O)no1 | 30 ± 2.2
6 | O=C1/C(=C/c2ccc(O)c(O)c2)SC(=S)N1c1ccc(O)cc1 | 35.5 ± 3.5
7 | Cc1ccc(C(=O)Nc2ccccc2N)cc1 | 42.2 ± 2.2
8 | O=[N+]([O-])c1ccc2nc(/C=C/c3ccccc3)[nH]c2c1 | 3.13 ± 2.4
9 | Cc1ccc(O)c(-c2cc(-c3ccc(F)cc3)n[nH]2)c1 | 17.2 ± 4
10 | CC(C)c1ccc(NC(=O)/C=C/c2ccco2)cc1 | 7.59 ± 2.4
11 | Nc1nc(Nc2ccc(Cl)cc2)nc2ccccc12 | 56.4 ± 4.6
12 | O=c1[nH]c(/C=C2\C=Nc3ccccc32)c(O)n1-c1ccc(Cl)cc1 | 89 ± 4.6
13 | O=C(Nc1ccc(Cl)cn1)c1ccc(Cl)cc1Cl | 4.15 ± 0.98
14 | O=C(CCCN1CCC2(CC1)C(=O)NCN2c1ccccc1)c1ccc(F)cc1 | 186 ± 12
15 | O=C(Nc1nc2c(s1)CCCC2)c1cccc2ccccc12 | 6.96 ± 1.1
16 | COc1ccc(-c2nn(-c3ccccc3)cc2/C=C/C(=O)O)cc1[N+](=O)[O-] | 6.98 ± 2.8
17 | Nc1ccc2nc(-c3ccccn3)[nH]c2c1 | 22 ± 0.38
18 | COC(=O)c1ccc(C(=O)Nc2ccccc2N)cc1 | 28 ± 2.5
19 | CCOc1cc(/C=C2/NC(=O)N(c3cccc(Cl)c3)C2=O)ccc1O | 61.4 ± 9.7
20 | Cc1cnc(NC(=O)c2sc3nc4c(C)cccc4cc3c2N)s1 | 96.9 ± 3.6
21 | Cc1ccc(O)c(NC(=O)c2cc(-c3ccco3)on2)c1 | 34.4 ± 4.2
22 | OCCNc1nc(Nc2ccc(Cl)c(Cl)c2)nc2ccccc12 | 73.7 ± 9
23 | Cc1cc(C)nc(/N=C(\N)Nc2ccc(OCc3ccc(Cl)cc3)cc2)n1 | 88.2 ± 3.4
24 | c1ccc2cc(-c3cnnc(N4CCOCC4)n3)ccc2c1 | 4.15 ± 2.7

Row | Structure (SMILES) | maximal XBP1-RLuc activation
25 | Cn1c(-c2cccc(Cl)c2)cnc1NC(=O)c1ccccc1 | 8.33 ± 5.9
26 | Cc1ccc(NC(=O)/C=C/c2ccco2)nc1 | 7.43 ± 1.4
27 | C(=C\c1ccccc1)/C=N/Nc1nc2ccccc2[nH]1 | 22.2 ± 2
28 | Cc1cc(C)nc(/N=C(\N)Nc2ccc(OCc3ccccc3)cc2)n1 | 94.2 ± 4.2
29 | CC(=O)Oc1ccc2cc(NC(=O)c3ccc(C)cc3)c(=O)oc2c1 | 14.6 ± 0.94
30 | Nc1ccccc1NC(=O)c1ccc(Cl)cc1 | 34.9 ± 0.91
31 | Cc1ccc(O)c(-c2cc(-c3cccs3)[nH]n2)c1 | 27.5 ± 2.1
32 | CN(C)c1ccc(-c2nc3ccc(N)cc3[nH]2)cc1 | 32 ± 6
33 | Cc1cc(C)c2nc3sc(C(=O)N4CCCCC4)c(N)c3cc2c1 | 13.4 ± 1.4
34 | COc1ccc(/C=C/c2ccc3cccc(OC(C)=O)c3n2)cc1OC(C)=O | 15 ± 2.1
35 | O=C(N/N=C/c1ccc(O)c(O)c1)c1cccc(Cl)c1 | 29.3 ± 2.4
36 | O=C(NCCCn1ccnc1)c1cc(-c2cccs2)on1 | 12.1 ± 0.83
37 | N#C/C(=C\c1ccc(O)c(O)c1)c1nc2ccccc2[nH]1 | 25.6 ± 1.6
38 | Cc1cccc2c1[nH]c1nc(N/N=C\c3c[nH]c4ccccc34)nnc12 | 32.4 ± 5.6
39 | CC(=O)c1cccc(Nc2nc(-c3ccc(O)c(O)c3)cs2)c1 | 62.6 ± 15
40 | Nc1nc(Nc2ccc(Cl)c(Cl)c2)nc2ccccc12 | 61.9 ± 4
41 | Cc1ccc(NC(=S)NC(=O)C(=O)Nc2ccccc2)cc1 | 2.05 ± 0.91
42 | C=CCNC(=O)c1sc2nc3cc(C)c(C)cc3cc2c1N | 2.32 ± 1.2
43 | N#CC1=C(N)Oc2c(ccc3ccccc23)C1c1ccccc1 (stereo unspecified) | 7.34 ± 1.6
44 | COc1ccc(/C=C2\SC(=O)NC2=Nc2ccc(C)cc2)c(OC)c1 | 3.27 ± 1.6
45 | COc1ccc(/C=N/NC(=O)c2cccc(F)c2)cc1Br | 1.14 ± 6.2
46 | COc1cccc(-c2cc(C(=O)Nc3cc(C)ccc3O)on2)c1 | 25.6 ± 5.2
47 | OCCNc1nc(Nc2ccc(Br)cc2)nc2ccccc12 | 57 ± 8.1
48 | O=C(Nc1ccccc1O)c1ccc(C(=O)c2ccccc2)cc1 | 15.1 ± 5.4

Row | Structure (SMILES) | maximal XBP1-RLuc activation
49 | Oc1ccc(-c2csc3nc(-c4ccccc4)nn23)c(O)c1 | 32.4 ± 1.3
50 | CCCCCCc1ccc(-c2ncc(N)cn2)cc1 | 44.3 ± 1.5
51 | O=[N+]([O-])c1ccccc1NC(=S)N/N=C/c1ccc(O)c(O)c1 | 28.2 ± 2.5
52 | O=C(N/N=C\C(Br)=C\c1ccccc1)c1n[nH]c2c1CCCC2 | 9.49 ± 5.7
53 | Nc1ccc(-c2nc3cc(N)c(Cl)cc3[nH]2)cc1 | 17.6 ± 0.39
54 | C=CCNC(=O)c1cc(-c2ccccc2)on1 | 10.7 ± 4.1
55 | Nc1ccc2nc(-c3ccc(Cl)cc3)[nH]c2c1 | 35.3 ± 12
56 | Nc1ccc2nc(/C=C/c3ccco3)[nH]c2c1 | 32.3 ± 1.3
57 | COc1ccc(-c2cc(C(=O)Nc3cc(C)ccc3O)on2)cc1OC | 9.55 ± 5.6
58 | O=C(Nc1ccc2nc(NC(=O)C3CCCCC3)sc2c1)C1CCCCC1 | 5.73 ± 2.7
59 | N#Cc1c(NC(=O)c2ccc3c(c2)OCO3)sc2c1CCCC2 | 1.79 ± 3.7
60 | Cc1cc2nc(-c3ccc(SCC#N)nc3)[nH]c2cc1C | 8.52 ± 0.53
61 | O=C(CC(=O)Nc1ccc2nc3n(c(=O)c2c1)CCCCC3)NCc1ccco1 | 40.7 ± 7.4
62 | COc1ccc(/C=N/c2sc3c(c2C(N)=O)CCCC3)cc1 | 4.94 ± 3.8
63 | COc1ccccc1-c1cnnc(N/N=C/c2c[nH]c3ccccc23)n1 | 29.8 ± 2.1
64 | Nc1c(C(=O)Nc2ccccc2)sc2nc3c(cc12)CCCCC3 | 15.7 ± 1.2
65 | Cc1ccc(O)c(NC(=O)c2cc(-c3cccs3)on2)c1 | 32.4 ± 6.1
66 | COc1ccc(N(C(=O)c2ccccc2)S(=O)(=O)c2cc(OC)ccc2OC)cc1 | 185 ± 8.3
67 | Oc1ccccc1/C=N\Nc1nc2ccccc2o1 | 19.8 ± 1.3
68 | Cc1ccn2cc(-c3ccc(O)c(O)c3)nc2c1 | 70.3 ± 12
69 | O=C(Nc1ccc2c(c1)OCCO2)C(=O)Nc1ccccc1Cl | 2.68 ± 2.8
70 | Cc1ccc(O)c(NC(=O)c2cc(C(C)C)on2)c1 | 14.4 ± 1.7
71 | Oc1ccc(/C=N/Nc2cccc3cccnc23)c(O)c1 | 53.6 ± 5.7
